Measured values from patent publication EP2550964A1, “Temsirolimus for use in the prevention and/or treatment of a delta 9-tetrahydrocannabinol-induced anxiety disorder” (Universitat Pompeu-Fabra, priority 2011, dated 2013).

What was measured:
Assay type in all cases: in vivo
[1] = system: mice; test: Object-recognition task (V-maze, discrimination index)
Experimental: Object-recognition memory was assayed in the V-maze, a black Plexiglas maze with two corridors (30 cm long x 4.5 cm wide) set in V with a 90 degrees angle, and 15 cm high walls. The test was performed as previously described (Puighermanal, E. et al., 2009. Nature Neuroscience, 12:1152-1158). Briefly, a discrimination index was calculated in the test session. All the drugs (temsirolimus or THC and their vehicles) were injected intraperitoneally after the training session. Objects to be explored in the test were made out of different materials (marble, wood or plastic) and shapes, and had been tested in previous experiments to show no preference or dislike for control mice. On the first day, mice were placed for 9 min in the V-maze for habituation. On the second day, mice were placed back in the V-maze where two objects were positioned at the end of the corridors. On the next day (test day), mice were placed in the V-maze where one of the objects was replaced by a new object. The time spent exploring the familiar object (Tf) and the novel object (Tn) were counted and the discrimination index (D.I.) was calculated as follows: D.I.= [Tn-Tf]/[Tn+Tf]. D.I. close to zero means a cognitive deficit, while D.I. close to 0.5 means a good cognitive function in this memory test.

[2] = system: mice
Experimental: Elevated plus maze test. The elevated plus maze test was performed in a black Plexiglas apparatus with four arms (29 cm long x 5 cm wide) set in cross from a neutral central square (5 cm x 5 cm) elevated 40 cm above the floor. Five-min test sessions were performed 120 min after drug administration through intraperitoneal injection (temsirolimus and/or THC, and their vehicles). The percentage of time spent in the open arms was determined as a measure of anxiety-like processes. The model is based on rodents' aversion of open spaces. Anxiety reduction in the elevated plus maze test is indicated by an increase in the proportion of time spent in the open arms

[3] = system: mice; test: Antinociception, acetic acid visceral pain test (number of writhes)
Experimental: This visceral pain test was performed 120 min after THC administration. Mice received an i.p. administration of acetic acid (0.8 % solution) injected in a volume of […] of body weight. Immediately after, mice were placed in individual transparent cylinders (16 cm high, 16 cm diameter) for 20 min. The number of writhes was counted during 15 min, starting 5 min after acetic acid administration.

CCCCCc1cc(O)c2c(c1)OC(C)(C)[C@@H]1CCC(C)=C[C@@H]21 [THC, (-)-(6aR,10aR)-6,6,9-trimethyl-3-pentyl-6a,7,8,10a-tetrahydro-6H-benzo[c]chromen-1-ol]
cognitive deficit on chronic administration (object-recognition test) ([1]; mouse, in vivo): produces a cognitive deficit | persistence of cognitive deficit after finishing the exposition to THC ([1]; mouse, in vivo): continues showing a cognitive deficit during the following four days | amnesic effect in the object-recognition test ([1]; mouse, in vivo, ip): always presents an amnesic effect | anxiety-like effect of THC at low dose ([2]; mouse, in vivo): causes anxiolytic effects | anxiety-like effect of THC at high doses ([2]; mouse, in vivo, 10 mg/kg/day): cause anxiogenic effects | analgesic effects (abdominal writhes) ([3]; mouse, in vivo): has analgesic effects

CO[C@H]1C[C@@H]2CC[C@@H](C)[C@@](O)(O2)C(=O)C(=O)N2CCCC[C@H]2C(=O)O[C@H]([C@H](C)C[C@@H]2CC[C@@H](OC(=O)C(C)(CO)CO)[C@H](OC)C2)CC(=O)[C@H](C)/C=C(\C)[C@@H](O)[C@@H](OC)C(=O)[C@H](C)C[C@H](C)/C=C/C=C/C=C/1C [temsirolimus, (1R,2R,4S)-4-{(2R)-2-[(3S,6R,7E,9R,10R,12R,145,15E,17E,19E,215,23S,26R,27R,34aS)-9,27-dihydroxy-10,21-dimethoxy-6,8,12,14,20,26-hexamethyl-1,5,11,28,29-pentaoxo-1,4,5,6,9,10,11,12,13,14,21,22,23,24,25,26,27,28,29,31,32,33,34,34a-tetracosahydro-3H-23,27-epoxypyrido[2,1-c][1,4]oxazacyclohentriacontin-3-yl]propyl}-2-methoxycyclohexyl 3-hydroxy-2-(hydroxymethyl)-2-methylpropanoate]
blockade of the amnesic effect of THC ([1]; pre-treatment with temsirolimus 1 mg/kg/day (3 mg/m^2/day), THC 10 mg/kg/day (30 mg/m^2/day), Figure 2): blocks the amnesic effect | prevention of the THC cognitive deficit on chronic co-administration ([1]; temsirolimus 1 mg/kg/day (3 mg/m^2/day) together with THC 10 mg/kg/day (30 mg/m^2/day), chronic, Figure 3B): prevented the appearance of the THC cognitive deficit | effects on the recognition memory ([1]; temsirolimus alone, 1 mg/kg/day (3 mg/m^2/day), i.p., Figure 1): does not have effects on the recognition memory | amnesic effects (object-recognition test) ([1]; temsirolimus alone, high doses 10, 30 and 100 mg/kg/day (30, 90 and 300 mg/m^2/day), i.p., Figure 1): shows amnesic effects | influence on the anxiolytic effect of THC ([2]; temsirolimus 1 mg/kg/day (3 mg/m^2/day), THC 0.3 mg/kg/day (0.9 mg/m^2/day), Figure 5): does not avoid the anxiolytic effect | blockade of the anxiogenic effects of THC ([2]; temsirolimus 1 mg/kg/day (3 mg/m^2/day), THC 10 mg/kg/day (30 mg/m^2/day), i.p., test 120 min after administration, Figure 4): blocks the anxiogenic effects | influence on the analgesic capacity of THC ([3]; pre-treatment with temsirolimus 1 mg/kg/day (3 mg/m^2/day) and THC 10 mg/kg/day (30 mg/m^2/day), Figure 6): does not affect the analgesic capacity of THC
